Experimental data reported in patent US7842710B2, “Carboxamides” (Bayer Cropscience AG, priority 2004, dated 2010).
Each block holds one molecule with its values, some of them ahead of it.

Columns and labels:
Puccinia recondita = assay: Puccinia test (wheat)/protective; type: in vivo; details: 240 h, protective, application rate 500 g/ha, evaluation ten days after inoculation, 0% = control, 100% = no infestation, read-out: Degree of effectiveness in %
Method: [table] To produce an appropriate active ingredient preparation, one part by weight of the active substance is mixed with the specified quantities of solvent and emulsifying agent, and the concentrate is diluted with water to the desired concentration. Young plants are sprayed with the active ingredient preparation at the specified application rate to test the effectiveness of protection. After the sprayed coating has dried, the plants are sprayed with a conidia suspension of Puccinia recondita. The plants are kept in an incubator at 20° C. and 100% relatively humidity for 48 hours. Then the plants are placed in a greenhouse at a temperature of about 20° C. and a relatively humidity of 80%, in order to promote the development of rust spots. The evaluation is performed ten days after the inoculation. A degree of effectiveness rating of 0% corresponds to the control, with 100% indicating no infestation observed.

[1] = logP determination by HPLC on a reverse phase column (C18), EEC Directive 79/831 Annex V.A8; type: physicochemical; details: HPLC C18, 43° C.; for logP (pH 2.3): Table 1; for chromatographic logP: reverse phase HPLC column (C18), pH 2.3
Method: The specified logP values are determined by HPLC on a reverse phase column (C18) in accordance with EEC Directive 79/831 Annex V.A8. Temperature: 43° C. Eluents for the measurement in the acid range (pH 2.3): 0.1% aqueous phosphoric acid, acetonitrile; linearer gradient of 10% acetonitrile to 90% acetonitrile. Calibration is performed with unbranched alkyl-2-ones (with 3 to 16 carbon atoms) with known logP values (determination of the logP values based on retention times by linear interpolation between two sequential alkyl ketones).

Compound: CC(C)OC(C)c1ccccc1NC(=O)c1cn(C)nc1C(F)F (centres unmarked) [drawing 499]
- pest or weed control at 500 g/ha (Puccinia recondita): 100%

Compound: CCCC(C)SC(C)c1ccccc1NC(=O)c1c(C)nn(C)c1Cl (centres unmarked)
- pest or weed control at 500 g/ha (Puccinia recondita): 100%

Compound: Cc1nc(C(F)F)c(C(=O)Nc2ccccc2CSC(C)C)s1 [drawing 495]
- pest or weed control at 500 g/ha (Puccinia recondita): 93%

Compound: Cc1nn(C)c(F)c1C(=O)Nc1ccccc1C(C)OC(C)C (centres unmarked)
- pest or weed control at 500 g/ha (Puccinia recondita): 100%

Compound: CCCC(C)SC(C)c1ccccc1NC(=O)c1sc(C)nc1C(F)(F)F (centres unmarked) [drawing 496]
- pest or weed control at 500 g/ha (Puccinia recondita): 100%

Compound: CCC(C)SC(C)c1ccccc1NC(=O)c1sccc1C (centres unmarked)
- pest or weed control at 500 g/ha (Puccinia recondita): 100%

Compound: CCC(C)SC(C)c1ccccc1NC(=O)c1cn(C)nc1C(F)(F)F (centres unmarked) [drawing 498]
- pest or weed control at 500 g/ha (Puccinia recondita): 100%

Compound: CCC(C)SC(C)c1ccccc1NC(=O)C1=C(C)OCCS1 (centres unmarked) [drawing 508]
- pest or weed control at 500 g/ha (Puccinia recondita): 100%

Compound: CC(C)SC(C)c1ccccc1NC(=O)c1c(C(F)(F)F)nn(C)c1F (centres unmarked)
- pest or weed control at 500 g/ha (Puccinia recondita): 96%

Compound: CCC(C)SC(C)c1ccccc1NC(=O)c1c(C)nn(C)c1F (centres unmarked) [drawing 497]
- pest or weed control at 500 g/ha (Puccinia recondita): 100%

Compound: CC1=C(C(=O)Nc2ccccc2C(C)SC(C)C)SCCO1 (centres unmarked) [drawing 509]
- pest or weed control at 500 g/ha (Puccinia recondita): 100%

Compound: CCC(C)SC(C)c1ccccc1NC(=O)c1cn(C)nc1C(F)F (centres unmarked) [drawing 507]
- pest or weed control at 500 g/ha (Puccinia recondita): 100%

Compound: Cc1nc(C(F)F)c(C(=O)Nc2ccccc2C(C)SC(C)C)s1 (racemic) [compound 29]
- logP (pH 2.3) [1]: 3.55

Compound: CC(C)NC(C)c1ccccc1[N+](=O)[O-] (centres unmarked) [VII-5, N-[1-(2-nitrophenyl)ethyl]propane-2-amine]
- chromatographic logP [1]: 0.55

Compound: Cn1cc(C(=O)Nc2ccccc2CO)c(C(F)(F)F)n1 [IV-1, N-[2-(hydroxymethyl)phenyl]-1-methyl-3-(trifluoromethyl)-1H-pyrazole-4-carboxamide]
- chromatographic logP [1]: 1.55

Compound: CC1=C(C(=O)Nc2ccccc2C(C)S(=O)(=O)C(C)C)SCCO1 (centres unmarked) [compound 2]
- logP (pH 2.3) [1]: 2.07

Compound: CC(C)SC(C)c1ccccc1NC(=O)c1cn(C)nc1C(F)F (racemic) [compound 28]
- logP (pH 2.3) [1]: 3.01

Compound: Cc1sccc1C(=O)Nc1ccccc1C(C)S(=O)(=O)C(C)C (centres unmarked) [Compound No. 4]
- logP (pH 2.3) [1]: 2.38

Compound: CC(O)c1ccccc1[N+](=O)[O-] (centres unmarked) [XI-1, 1-(2-nitrophenyl)ethanol]
- chromatographic logP [1]: 1.49

Compound: CC(C)SC(C)c1ccccc1NC(=O)c1ccccc1C(F)(F)F (centres unmarked) [compound 23]
- logP (pH 2.3) [1]: 3.90

Compound: Cc1nc(C(F)F)c(C(=O)Nc2ccccc2C(C)S(=O)(=O)C(C)C)s1 (centres unmarked) [compound 13]
- logP (pH 2.3) [1]: 2.16

Compound: Cc1nn(C)c(F)c1C(=O)Nc1ccccc1C(C)S(=O)(=O)C(C)C (centres unmarked) [compound 11]
- logP (pH 2.3) [1]: 1.66

Compound: CC(C)NC(C)c1ccccc1N (centres unmarked) [III-4, 2-[1-(isopropylamino)ethyl]aniline]
- chromatographic logP [1]: 0.05

Compound: CC(C)S(=O)(=O)C(C)c1ccccc1NC(=O)c1ccccc1I (centres unmarked) [compound 7]
- logP (pH 2.3) [1]: 2.43

Compound: CC(C)SC(C)c1ccccc1NC(=O)c1ccccc1Br (racemic) [compound 26]
- logP (pH 2.3) [1]: 3.79

Compound: Cc1nn(C)c(F)c1C(=O)Nc1ccccc1C(C)SC(C)C (centres unmarked) [compound 19]
- logP (pH 2.3) [1]: 2.98

Compound: COC(C)c1ccccc1NC(=O)c1c(C)nn(C)c1F (racemic) [compound 31]
- logP (pH 2.3) [1]: 2.17

Compound: CC(C)OCc1ccccc1NC(=O)c1cn(C)nc1C(F)(F)F [Compound No. 60, N-[2-(isopropoxymethyl)phenyl]-1-methyl-3-(trifluoromethyl)-1H-pyrazol-4-carboxamide]
- chromatographic logP [1]: 2.85

Compound: Cc1nn(C)c(F)c1C(=O)Nc1ccccc1C(C)NC(C)C (centres unmarked) [Compound No. 40, 5-fluoro-N-{2-[1-(isopropylamino)ethyl]phenyl}-1,3-dimethyl-1H-pyrazole-4-carboxamide]
- chromatographic logP [1]: 0.58

Compound: CC(C)SC(C)c1ccccc1NC(=O)c1ccccc1I (racemic) [compound 27]
- logP (pH 2.3) [1]: 3.91

The remaining lines, values ahead:

- logP (pH 2.3) [1]: 3.95
Compound: CCC(C)SC(C)c1ccccc1NC(=O)c1sc(C)nc1C(F)F (centres unmarked) [compound 78]

- logP (pH 2.3) [1]: 3.80
Compound: Cc1occc1C(=O)Nc1ccccc1C(C)OC(C)C (centres unmarked) [compound 126]

- logP (pH 2.3) [1]: 4.24
Compound: Cc1nc(C(F)(F)F)c(C(=O)Nc2ccccc2C(C)SC2CCCC2)s1 (centres unmarked) [compound 94]

- logP (pH 2.3) [1]: 4.60
Compound: CCCC(C)SC(C)c1ccccc1NC(=O)c1ccccc1Cl (centres unmarked) [compound 72]

- logP (pH 2.3) [1]: 3.76
Compound: CC(SC1CCCC1)c1ccccc1NC(=O)c1cn(C)nc1C(F)(F)F (centres unmarked) [compound 96]

- logP (pH 2.3) [1]: 2.36
Compound: Cc1nn(C)c(F)c1C(=O)Nc1ccccc1COC(=O)C(Cl)Cl [compound 52]

- logP (pH 2.3) [1]: 3.24
Compound: CC(C)C(=O)OCc1ccccc1NC(=O)c1ccccc1C(F)(F)F [compound 53]

- logP (pH 2.3) [1]: 4.02
Compound: CCCC(C)SC(C)c1ccccc1NC(=O)c1cn(C)nc1C(F)(F)F (mixture of isomers) [compound 42]

- logP (pH 2.3) [1]: 3.49
Compound: CC(C)C(=O)OCc1ccccc1N(C(=O)c1cccnc1Cl)C(=O)C(C)C [compound 59]

- logP (pH 2.3) [1]: 1.62
Compound: Cn1cc(C(=O)Nc2ccccc2CCO)c(C(F)(F)F)n1 [compound 62]

- logP (pH 2.3) [1]: 3.83
Compound: CC(C)OC(C)c1ccccc1NC(=O)c1ccccc1I (centres unmarked) [compound 130]

- logP (pH 2.3) [1]: 3.56
Compound: COC(C)c1cc(Cl)ccc1NC(=O)c1ccccc1C(F)(F)F (racemic) [compound 33]

- logP (pH 2.3) [1]: 3.38
Compound: CCC(C)SC(C)c1ccccc1NC(=O)c1cn(C)nc1C(F)F (centres unmarked) [compound 80]

- logP (pH 2.3) [1]: 2.72
Compound: CC(C)OC(C)c1ccccc1NC(=O)c1cccnc1Cl (centres unmarked) [compound 132]

- logP (pH 2.3) [1]: 4.41
Compound: CC(SC1CCCC1)c1ccccc1NC(=O)c1ccccc1C(F)(F)F (centres unmarked) [compound 97]

- logP (pH 2.3) [1]: 3.27
Compound: Cc1nc(C(F)F)c(C(=O)Nc2ccccc2CSC(C)C)s1 [compound 35]

- logP (pH 2.3) [1]: 3.38
Compound: CCC(C)SC(C)c1ccccc1NC(=O)c1c(C)nn(C)c1F (mixture of isomers) [compound 46]

- logP (pH 2.3) [1]: 3.48
Compound: CC(C)SCc1ccccc1NC(=O)C1=C(C(F)(F)F)OCCS1 [compound 37]

- logP (pH 2.3) [1]: 4.61
Compound: CCCC(C)SC(C)c1ccccc1NC(=O)c1ccoc1C (centres unmarked) [compound 77]

- logP (pH 2.3) [1]: 5.60
Compound: CC(C)OC(C)c1ccccc1NC(=O)c1cn(C)cc1C(F)(F)F (centres unmarked) [compound 138]

- logP (pH 2.3) [1]: 3.16
Compound: Cc1sccc1C(=O)Nc1ccccc1C(C)SC1CCCC1 (centres unmarked) [compound 90]

- logP (pH 2.3) [1]: 3.58
Compound: Cc1nc(C(F)F)c(C(=O)Nc2ccccc2C(C)OC(C)C)s1 (centres unmarked) [compound 131]

- logP (pH 2.3) [1]: 4.36
Compound: CCCC(C)SC(C)c1ccccc1NC(=O)c1sc(C)nc1C(F)F (centres unmarked) [compound 79]

- logP (pH 2.3) [1]: 2.74
Compound: CC(C)C(=O)OCc1ccccc1NC(=O)c1cn(C)nc1C(F)(F)F [compound 55]

- logP (pH 2.3) [1]: 4.12
Compound: CCC(C)SC(C)c1ccccc1NC(=O)c1sc(C)nc1C(F)(F)F (mixture of isomers) [compound 48]

- logP (pH 2.3) [1]: 2.51
Compound: CC(C)OCc1ccccc1NC(=O)c1ccccc1C(F)(F)F [compound 54]

- logP (pH 2.3) [1]: 4.17
Compound: CCC(C)SC(C)c1ccccc1NC(=O)c1ccoc1C (centres unmarked) [compound 74]

- logP (pH 2.3) [1]: 3.04
Compound: Cc1nn(C)cc1C(=O)Nc1ccccc1C(C)SC1CCCC1 (centres unmarked) [compound 95]

- logP (pH 2.3) [1]: 3.65
Compound: Cc1nc(C(F)(F)F)c(C(=O)Nc2ccccc2C(C)OC(C)C)s1 (centres unmarked) [compound 133]

- logP (pH 2.3) [1]: 4.17
Compound: CCC(C)SC(C)c1ccccc1NC(=O)c1ccccc1Cl (centres unmarked) [compound 73]

- logP (pH 2.3) [1]: 2.76
Compound: CC(C)SCc1ccccc1NC(=O)c1cn(C)nc1C(F)F [compound 38]

- logP (pH 2.3) [1]: 3.47
Compound: CC1=C(C(=O)Nc2ccccc2C(C)OC(C)C)SCCO1 (centres unmarked) [compound 128]

- logP (pH 2.3) [1]: 4.49
Compound: Cc1nn(C)c(F)c1C(=O)Nc1ccccc1CCO[Si](C)(C)C(C)(C)C [compound 69]

- logP (pH 2.3) [1]: 2.40
Compound: Cc1nn(C)c(F)c1C(=O)Nc1ccccc1CCOC(=O)C(C)C [compound 67]

- logP (pH 2.3) [1]: 2.90
Compound: CCC(C)SC(C)c1ccccc1NC(=O)c1cn(C)nc1C (centres unmarked) [compound 84]

- logP (pH 2.3) [1]: 4.59
Compound: Cn1cc(C(=O)Nc2ccccc2CCO[Si](C)(C)C(C)(C)C)c(C(F)(F)F)n1 [compound 65]

- logP (pH 2.3) [1]: 4.29
Compound: CC(SC1CCCC1)c1ccccc1NC(=O)c1ccccc1Cl (centres unmarked) [compound 92]

- logP (pH 2.3) [1]: 4.63
Compound: CCCC(C)SC(C)c1ccccc1NC(=O)c1ccccc1Br (centres unmarked) [compound 81]
